Laboratory results as given in patent publication US10870647B2, “Imidazopyridine derivative, method for preparing same, and pharmaceutical composition containing same as active ingredient for preventing or treating cancer” (DAEGU-GYEONGBUK MEDICAL INNOVATION FOUNDATION, priority 2016, dated 2020).

Assays:
Assay in all cases: Kinase selectivity, scanMAX Kinase assay panel (DiscoverX), % control at 1 uM
Format in all cases: binding
[1] = biological target: T1, scanMAX Kinase assay panel (Homo sapiens, UniProt P20794); settings: MAK; 1 uM; read-out: Percent Control (%)
T1 construct: purchased DiscoverX
T1 sequence (P20794 1-623): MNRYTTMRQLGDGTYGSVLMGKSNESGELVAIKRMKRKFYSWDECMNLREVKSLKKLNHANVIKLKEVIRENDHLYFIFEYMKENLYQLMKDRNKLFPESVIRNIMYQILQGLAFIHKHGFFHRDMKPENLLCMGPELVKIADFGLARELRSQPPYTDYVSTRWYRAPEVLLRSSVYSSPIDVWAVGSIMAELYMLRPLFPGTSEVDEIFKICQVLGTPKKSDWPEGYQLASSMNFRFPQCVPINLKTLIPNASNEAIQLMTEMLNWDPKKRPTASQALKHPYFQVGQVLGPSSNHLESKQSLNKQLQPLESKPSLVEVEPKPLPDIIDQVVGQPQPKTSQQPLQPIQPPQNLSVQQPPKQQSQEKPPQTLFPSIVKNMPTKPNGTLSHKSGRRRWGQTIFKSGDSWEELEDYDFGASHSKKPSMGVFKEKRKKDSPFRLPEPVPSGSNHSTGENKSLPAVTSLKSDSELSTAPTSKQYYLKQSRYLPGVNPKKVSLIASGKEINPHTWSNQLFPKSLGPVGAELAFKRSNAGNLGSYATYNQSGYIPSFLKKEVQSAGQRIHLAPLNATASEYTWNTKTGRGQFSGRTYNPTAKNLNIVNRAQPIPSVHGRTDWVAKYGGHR
How it was run: (§1)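 Activity was called for kinases showing % control under 35, calculated from compound signal relative to positive and negative controls. Each compound screened at 1 uM against the DiscoverX scanMAX panel.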

[2] = biological target: T2, scanMAX Kinase assay panel (Homo sapiens, UniProt Q96NX5); settings: CAMK1G; 1 uM; read-out: Percent Control (%)
T2 construct: purchased DiscoverX
How it was run: as §1

[3] = biological target: T3, scanMAX Kinase assay panel (Homo sapiens, UniProt P08581, Y1235D); settings: MET (Y1235D); 1 uM; read-out: Percent Control (%)
T3 construct: purchased DiscoverX
How it was run: as §1

[4] = biological target: T4, scanMAX Kinase assay panel (Homo sapiens, UniProt Q6DT37); settings: DMPK2; 1 uM; read-out: Percent Control (%)
T4 construct: purchased DiscoverX
How it was run: as §1

[5] = biological target: T5, scanMAX Kinase assay panel (Homo sapiens, UniProt Q16832); settings: DDR2; 1 uM; read-out: Percent Control (%)
T5 construct: purchased DiscoverX
T5 sequence (Q16832 22-855): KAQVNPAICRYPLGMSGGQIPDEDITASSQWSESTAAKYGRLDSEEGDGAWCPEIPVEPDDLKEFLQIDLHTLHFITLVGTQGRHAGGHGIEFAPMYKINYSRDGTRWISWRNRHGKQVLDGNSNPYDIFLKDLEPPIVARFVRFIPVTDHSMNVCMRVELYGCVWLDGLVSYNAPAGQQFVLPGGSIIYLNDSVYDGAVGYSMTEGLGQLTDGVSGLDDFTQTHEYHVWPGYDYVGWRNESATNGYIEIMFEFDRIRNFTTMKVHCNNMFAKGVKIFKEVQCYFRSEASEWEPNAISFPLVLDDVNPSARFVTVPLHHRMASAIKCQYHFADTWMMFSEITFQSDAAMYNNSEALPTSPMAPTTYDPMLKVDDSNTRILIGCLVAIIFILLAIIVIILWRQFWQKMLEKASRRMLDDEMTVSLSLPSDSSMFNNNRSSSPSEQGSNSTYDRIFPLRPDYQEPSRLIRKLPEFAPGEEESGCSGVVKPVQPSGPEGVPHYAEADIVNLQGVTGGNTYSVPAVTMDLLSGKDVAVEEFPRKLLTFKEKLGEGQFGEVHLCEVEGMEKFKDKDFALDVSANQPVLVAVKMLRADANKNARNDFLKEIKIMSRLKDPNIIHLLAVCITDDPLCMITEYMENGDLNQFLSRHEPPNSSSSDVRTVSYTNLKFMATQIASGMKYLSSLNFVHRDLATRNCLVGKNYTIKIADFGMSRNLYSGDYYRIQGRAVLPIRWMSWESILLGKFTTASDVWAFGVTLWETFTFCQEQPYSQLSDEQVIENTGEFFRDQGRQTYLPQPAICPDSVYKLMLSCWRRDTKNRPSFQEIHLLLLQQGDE
How it was run: as §1

[6] = biological target: T6, scanMAX Kinase assay panel (Homo sapiens, UniProt P16234); settings: PDGFRA; 1 uM; read-out: Percent Control (%)
T6 construct: purchased DiscoverX
How it was run: as §1

[7] = biological target: T7, scanMAX Kinase assay panel (Homo sapiens, UniProt Q86UX6); settings: YANK3; 1 uM; read-out: Percent Control (%)
T7 construct: purchased DiscoverX
How it was run: as §1

[8] = biological target: T8, scanMAX Kinase assay panel (Homo sapiens, UniProt Q13131); settings: AMPK-alpha1; 1 uM; read-out: Percent Control (%)
T8 construct: purchased DiscoverX
How it was run: as §1

T8 sequence (Q13131 whole entry): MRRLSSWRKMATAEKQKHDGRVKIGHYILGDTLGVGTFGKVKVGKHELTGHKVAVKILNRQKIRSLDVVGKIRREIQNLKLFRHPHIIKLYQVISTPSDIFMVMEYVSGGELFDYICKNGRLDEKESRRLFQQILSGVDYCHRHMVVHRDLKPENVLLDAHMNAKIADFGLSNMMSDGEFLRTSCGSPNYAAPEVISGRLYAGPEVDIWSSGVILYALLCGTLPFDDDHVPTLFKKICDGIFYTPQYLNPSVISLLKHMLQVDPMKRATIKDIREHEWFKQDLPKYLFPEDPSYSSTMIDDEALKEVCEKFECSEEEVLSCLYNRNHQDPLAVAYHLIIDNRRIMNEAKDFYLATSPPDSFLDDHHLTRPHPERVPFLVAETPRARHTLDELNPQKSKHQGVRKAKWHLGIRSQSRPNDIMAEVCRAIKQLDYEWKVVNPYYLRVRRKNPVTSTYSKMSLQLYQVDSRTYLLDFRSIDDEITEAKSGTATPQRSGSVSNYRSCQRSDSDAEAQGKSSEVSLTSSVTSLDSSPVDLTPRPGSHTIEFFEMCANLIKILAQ
T2 sequence (Q96NX5 whole entry): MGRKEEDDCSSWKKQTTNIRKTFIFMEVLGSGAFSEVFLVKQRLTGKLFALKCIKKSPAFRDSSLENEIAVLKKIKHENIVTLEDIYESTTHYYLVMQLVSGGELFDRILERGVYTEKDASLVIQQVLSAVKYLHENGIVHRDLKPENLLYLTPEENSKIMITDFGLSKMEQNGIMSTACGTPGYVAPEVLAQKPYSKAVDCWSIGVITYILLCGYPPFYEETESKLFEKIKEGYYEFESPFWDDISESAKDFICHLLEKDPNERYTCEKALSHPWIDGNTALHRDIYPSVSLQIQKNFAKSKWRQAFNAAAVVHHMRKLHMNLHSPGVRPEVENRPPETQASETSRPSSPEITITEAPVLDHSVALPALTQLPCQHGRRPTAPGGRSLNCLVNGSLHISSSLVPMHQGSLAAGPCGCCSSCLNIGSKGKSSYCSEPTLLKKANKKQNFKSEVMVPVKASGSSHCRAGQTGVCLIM
T7 sequence (Q86UX6 whole entry): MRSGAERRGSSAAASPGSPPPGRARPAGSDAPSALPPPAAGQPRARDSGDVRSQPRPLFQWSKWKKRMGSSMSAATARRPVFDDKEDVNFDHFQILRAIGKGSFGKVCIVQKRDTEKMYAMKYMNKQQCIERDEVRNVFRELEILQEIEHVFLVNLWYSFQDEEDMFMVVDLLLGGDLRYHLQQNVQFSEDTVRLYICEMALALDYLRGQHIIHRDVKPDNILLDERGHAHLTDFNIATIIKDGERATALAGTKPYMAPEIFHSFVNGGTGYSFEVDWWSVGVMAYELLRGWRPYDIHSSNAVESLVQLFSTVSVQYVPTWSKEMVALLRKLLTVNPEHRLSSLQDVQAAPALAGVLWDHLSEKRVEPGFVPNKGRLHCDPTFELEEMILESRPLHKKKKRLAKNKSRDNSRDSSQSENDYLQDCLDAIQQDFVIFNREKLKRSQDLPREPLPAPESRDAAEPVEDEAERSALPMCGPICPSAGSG
T3 sequence (P08581 25-1390 Y1235D): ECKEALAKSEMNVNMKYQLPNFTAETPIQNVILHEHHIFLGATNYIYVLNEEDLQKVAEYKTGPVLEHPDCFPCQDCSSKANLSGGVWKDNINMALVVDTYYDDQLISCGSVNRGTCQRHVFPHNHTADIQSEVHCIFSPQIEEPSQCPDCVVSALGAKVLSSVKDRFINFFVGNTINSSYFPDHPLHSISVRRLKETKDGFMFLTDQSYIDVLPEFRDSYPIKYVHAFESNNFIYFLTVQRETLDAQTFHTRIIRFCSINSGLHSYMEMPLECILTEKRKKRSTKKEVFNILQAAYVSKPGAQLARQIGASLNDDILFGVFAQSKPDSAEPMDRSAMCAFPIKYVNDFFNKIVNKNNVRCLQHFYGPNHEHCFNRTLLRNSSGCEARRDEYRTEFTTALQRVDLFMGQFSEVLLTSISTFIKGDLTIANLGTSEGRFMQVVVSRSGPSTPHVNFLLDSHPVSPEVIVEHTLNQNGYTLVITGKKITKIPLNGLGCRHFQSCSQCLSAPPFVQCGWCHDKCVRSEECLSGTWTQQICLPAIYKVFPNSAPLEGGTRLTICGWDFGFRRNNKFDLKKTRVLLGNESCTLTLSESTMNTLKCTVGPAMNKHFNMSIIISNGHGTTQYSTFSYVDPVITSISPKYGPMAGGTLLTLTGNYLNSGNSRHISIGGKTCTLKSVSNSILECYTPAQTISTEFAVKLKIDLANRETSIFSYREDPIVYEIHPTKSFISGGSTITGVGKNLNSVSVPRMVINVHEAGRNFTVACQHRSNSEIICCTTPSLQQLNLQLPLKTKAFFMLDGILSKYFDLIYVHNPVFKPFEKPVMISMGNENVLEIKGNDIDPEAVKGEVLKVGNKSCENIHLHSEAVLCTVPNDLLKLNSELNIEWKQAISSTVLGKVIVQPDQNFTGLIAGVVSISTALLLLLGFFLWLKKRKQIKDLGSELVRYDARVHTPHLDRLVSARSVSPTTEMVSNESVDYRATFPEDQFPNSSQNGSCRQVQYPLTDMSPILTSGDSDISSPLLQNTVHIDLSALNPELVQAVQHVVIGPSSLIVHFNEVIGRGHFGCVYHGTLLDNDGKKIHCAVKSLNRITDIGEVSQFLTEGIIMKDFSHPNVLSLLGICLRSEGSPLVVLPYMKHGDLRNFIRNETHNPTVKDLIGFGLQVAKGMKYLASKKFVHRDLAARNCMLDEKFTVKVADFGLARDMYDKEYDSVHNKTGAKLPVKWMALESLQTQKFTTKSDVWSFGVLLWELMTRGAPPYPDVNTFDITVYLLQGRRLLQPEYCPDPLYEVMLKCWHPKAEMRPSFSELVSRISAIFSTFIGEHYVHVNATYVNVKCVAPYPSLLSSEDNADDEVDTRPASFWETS
T6 sequence (P16234 24-1089): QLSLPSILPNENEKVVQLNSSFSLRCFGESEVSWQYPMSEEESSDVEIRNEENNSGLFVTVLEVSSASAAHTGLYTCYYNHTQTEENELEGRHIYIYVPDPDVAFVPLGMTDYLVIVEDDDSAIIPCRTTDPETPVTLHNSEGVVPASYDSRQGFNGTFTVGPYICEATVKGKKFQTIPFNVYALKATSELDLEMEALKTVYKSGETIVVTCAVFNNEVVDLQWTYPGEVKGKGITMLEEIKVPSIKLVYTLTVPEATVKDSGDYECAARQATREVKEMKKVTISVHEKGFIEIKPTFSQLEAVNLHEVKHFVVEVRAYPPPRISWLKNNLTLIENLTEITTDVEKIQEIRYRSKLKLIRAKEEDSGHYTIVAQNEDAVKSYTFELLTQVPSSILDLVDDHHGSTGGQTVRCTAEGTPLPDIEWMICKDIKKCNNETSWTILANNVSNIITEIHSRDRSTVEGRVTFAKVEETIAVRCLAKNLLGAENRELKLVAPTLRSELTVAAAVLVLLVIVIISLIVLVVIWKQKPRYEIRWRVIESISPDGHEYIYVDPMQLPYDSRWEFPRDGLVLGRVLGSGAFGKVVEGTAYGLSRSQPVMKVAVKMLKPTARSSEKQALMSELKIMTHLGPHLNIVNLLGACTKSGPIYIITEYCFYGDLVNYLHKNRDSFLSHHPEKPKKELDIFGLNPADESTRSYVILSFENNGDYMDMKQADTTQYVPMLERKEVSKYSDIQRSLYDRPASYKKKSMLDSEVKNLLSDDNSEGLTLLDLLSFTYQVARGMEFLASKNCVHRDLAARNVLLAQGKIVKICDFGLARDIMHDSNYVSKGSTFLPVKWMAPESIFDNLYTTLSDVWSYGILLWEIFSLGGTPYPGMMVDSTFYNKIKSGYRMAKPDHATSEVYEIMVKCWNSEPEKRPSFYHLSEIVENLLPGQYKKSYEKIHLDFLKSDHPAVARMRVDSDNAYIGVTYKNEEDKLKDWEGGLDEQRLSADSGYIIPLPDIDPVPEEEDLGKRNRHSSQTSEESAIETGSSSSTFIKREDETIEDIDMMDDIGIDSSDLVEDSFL

Structure (SMILES) | remaining binding at 1 µM [1] [%] | remaining binding at 1 µM [2] [%] | remaining binding at 1 µM [3] [%] | remaining binding at 1 µM [4] [%] | remaining binding at 1 µM [5] [%] | remaining binding at 1 µM [6] [%] | remaining binding at 1 µM [7] [%] | remaining binding at 1 µM [8] [%]
Cc1ccc(C(=O)Nc2ccc(CN3CCN(C)CC3)c(C(F)(F)F)c2)cc1C#Cc1cnc2c(Nc3cnn(C)c3)cccn12 [Example 1, 4-methyl-3-((8-((1-methyl-1H-pyrazol-4-yl)amino)imidazo[1,2-a]pyridin-3-yl)ethynyl)-N-(4-((4-methylpiperazin-1-yl)methyl)-3-(trifluoromethyl)phenyl)benzamide] | 10 | 71 | 61 | 100 | 0 | 1 | 74 | 7
Cc1cn(-c2cc(NC(=O)c3ccc(C)c(C#Cc4cnc5c(Nc6cnn(C)c6)cccn45)c3)cc(C(F)(F)F)c2)cn1 [Example 12, 4-methyl-N-(3-(4-methyl-1H-imidazol-1-yl)-5-(trifluoromethyl)phenyl)-3-((8-((1-methyl-1H-pyrazol-4-yl)amino)imidazo[1,2-a]pyridin-3-yl)ethynyl)benzamide] | 81 | 91 | 59 | 92 | 7 | 4 | 81 | 74
Cc1ccc(NC(=O)C2(C(=O)Nc3ccc(F)cc3)CC2)cc1C#Cc1cnc2c(Nc3cnn(C(C)C)c3)cccn12 [Example 78] | 100 | 100 | 82 | 100 | 3 | 29 | 99 | 100
